Assay results: publication PMC11087051, “Large-scale deorphanization of Nematostella vectensis neuropeptide G protein-coupled receptors supports the independent expansion of bilaterian and cnidarian peptidergic systems” (eLife, 2024)
Residues, ends and D or L forms follow the SMILES beside them. No end group written: not given here.

Test: Maximal solubility of the synthetic peptides in water and in DMSO (sheet Peptide_mixes)
Assay type: physicochemical
Conditions: for max solve (DMSO): in DMSO, number in brackets in the cell; for max solve water: in water, number before the bracket in the cell
Text: Supplement elife-90674-supp3.xlsx, sheet "Peptide_mixes"

Compound | max solve (DMSO) | max solve water
CSCC[C@H](NC(=O)[C@H](CC(C)C)NC(=O)CNC(=O)[C@@H]1CCC(=O)N1)C(=O)N[C@@H](Cc1ccccc1)C(=O)N[C@@H](CCCNC(=N)N)C(=O)N1CCC[C@H]1C(N)=O [FRPa2] (HELM PEPTIDE1{[Glp].G.L.M.F.R.P.[am]}$$$$V2.0) | 10 mg/mL | 5 mg/mL
N=C(N)NCCC[C@H](NC(=O)[C@@H]1CCCN1C(=O)CN)C(=O)NCC(N)=O [PRGa] (H-GPRG-NH2) | 10 (10) mg/ml | 10 (10) mg/ml
KGIKQEEIQPGNMKVWSDPF [PNX20] | 10 mg/mL | 5 mg/mL
SPWSYSLRP-NH2 [LRPa2] | 10 (10) mg/ml | 10 (10) mg/ml
APPGNGEGEAGFIPWFS-NH2 [WFSa] | 2 mg/mL | 0 mg/mL
APRGGRSLLDLLAAPRG-NH2 [PRGa1] | 10 (10) mg/ml | 10 (10) mg/ml
CC(C)C[C@H](NC(=O)CNC(=O)[C@@H]1CCCN1C(=O)[C@@H]1CCCN1C(=O)[C@H](CS)NC(=O)[C@@H]1CCC(=O)N1)C(=O)N[C@@H](Cc1c[nH]c2ccccc12)C(=O)NCC(=O)N[C@@H](CS)C(=O)O [GLWG] (HELM PEPTIDE1{[Glp].C.P.P.G.L.W.G.C}$$$$V2.0) | 10 (10) mg/ml | 10 (10) mg/ml
CC(C)C[C@H](NC(=O)CNC(=O)[C@@H]1CCCN1C(=O)[C@H](C)NC(=O)CNC(=O)[C@H](C)NC(=O)[C@@H]1CCC(=O)N1)C(=O)N[C@@H](Cc1c[nH]c2ccccc12)C(N)=O [GLWa1] (HELM PEPTIDE1{[Glp].A.G.A.P.G.L.W.[am]}$$$$V2.0) | 10 mg/mL | 5 mg/mL
DSSPPQW [QW2] | 10 mg/mL | 5 mg/mL
GYYRDNIQETRQYLDPRP-NH2 [RHa4] | 10 mg/mL | 5 mg/mL
CC[C@H](C)[C@H](NC(=O)[C@@H]1CCC(=O)N1)C(=O)N[C@H](C(=O)N[C@@H](CCCNC(=N)N)C(=O)N[C@@H](Cc1ccccc1)C(N)=O)[C@@H](C)O [RFa0] (HELM PEPTIDE1{[Glp].I.T.R.F.[am]}$$$$V2.0) | 5 (5) mg/ml | 5 (5) mg/ml
CC(C)C[C@H](NC(=O)[C@H](Cc1c[nH]cn1)NC(=O)[C@H](CO)NC(=O)[C@H](CC(C)C)NC(=O)[C@@H]1CCCN1C(=O)[C@@H]1CCCN1C(=O)[C@@H]1CCC(=O)N1)C(=O)N[C@@H](CO)C(N)=O [HLSa] (HELM PEPTIDE1{[Glp].P.P.L.S.H.L.S.[am]}$$$$V2.0) | 5 mg/mL | 0 mg/mL
SPKPPGLW-NH2 [GLWa5] | 10 (10) mg/ml | 10 (10) mg/ml
TPPSNI-NH2 [SNIa] | 5 mg/mL | 2 mg/mL
CC[C@H](C)[C@H](NC(=O)[C@H](Cc1c[nH]cn1)NC(=O)[C@H](Cc1ccccc1)NC(=O)[C@H](Cc1ccc(O)cc1)NC(=O)[C@H](C)NC(=O)[C@@H]1CCCN1C(=O)[C@@H](NC(=O)[C@H](CC(C)C)NC(=O)[C@H](CC(=O)O)NC(=O)[C@H](CC(C)C)NC(=O)[C@H](Cc1ccc(O)cc1)NC(=O)[C@@H]1CCCN1C(=O)[C@@H]1CCCN1C(=O)[C@@H]1CCC(=O)N1)[C@@H](C)O)C(=O)N[C@@H](CCCNC(=N)N)C(N)=O [HIRa3] (HELM PEPTIDE1{[Glp].P.P.Y.L.D.L.T.P.A.Y.F.H.I.R.[am]}$$$$V2.0) | 10 mg/mL | 5 mg/mL
CC(C)C[C@H](NC(=O)CNC(=O)[C@@H]1CCCN1C(=O)[C@@H]1CCCN1C(=O)CNC(=O)[C@H](C)NC(=O)[C@@H]1CCC(=O)N1)C(=O)N[C@@H](Cc1c[nH]c2ccccc12)C(N)=O [GLWa2] (HELM PEPTIDE1{[Glp].A.G.P.P.G.L.W.[am]}$$$$V2.0) | 10 (10) mg/ml | 10 (10) mg/ml
CC(C)C[C@H](NC(=O)CNC(=O)[C@@H]1CCCN1C(=O)[C@@H]1CCCN1C(=O)[C@@H](N)CS)C(=O)N[C@@H](Cc1c[nH]c2ccccc12)C(=O)N[C@@H](CS)C(N)=O [Am_CCa] (H-CPPGLWC-NH2) | 10 mg/mL | 5 mg/mL
CC(C)C[C@H](NC(=O)[C@H](Cc1ccc(O)cc1)NC(=O)[C@@H]1CCC(=O)N1)C(=O)N[C@@H](CC(=O)O)C(=O)N1CCC[C@H]1C(=O)N[C@@H](CCCNC(=N)N)C(=O)N1CCC[C@H]1C(N)=O [RHa5] (HELM PEPTIDE1{[Glp].Y.L.D.P.R.P.[am]}$$$$V2.0) | 15 mg/mL | 10 mg/mL
CC(C)C[C@H](NC(=O)[C@H](CO)NC(=O)[C@H](C)NC(=O)[C@@H](NC(=O)[C@H](CC(=O)O)NC(=O)[C@H](CC(N)=O)NC(=O)[C@H](CCC(=O)O)NC(=O)[C@H](CO)NC(=O)[C@@H](NC(=O)[C@H](CCC(=O)O)NC(=O)[C@H](CO)NC(=O)[C@@H](NC(=O)[C@H](CO)NC(=O)[C@@H]1CCCN1C(=O)[C@H](CC(C)C)NC(=O)[C@@H]1CCC(=O)N1)C(C)C)C(C)C)C(C)C)C(=O)N[C@@H](CC(C)C)C(=O)N[C@@H](CCCNC(=N)N)C(=O)N[C@@H](CCC(=O)O)C(=O)O [LRE] (HELM PEPTIDE1{[Glp].L.P.S.V.S.E.V.S.E.N.D.V.A.S.L.L.R.E}$$$$V2.0) | 5 mg/mL | 0 mg/mL
FPPGFHRP-NH2 [HRPa] | 10 mg/mL | 5 mg/mL
CC(C)C[C@H](NC(=O)[C@H](Cc1ccccc1)NC(=O)[C@H](C)NC(=O)[C@H](CC(=O)O)NC(=O)[C@@H]1CCC(=O)N1)C(=O)N1CCC[C@H]1C(=O)N[C@@H](CCCCN)C(=O)N1CCC[C@H]1C(=O)N[C@@H](CCCNC(=N)N)C(=O)N1CCC[C@H]1C(N)=O [RPa1] (HELM PEPTIDE1{[Glp].D.A.F.L.P.K.P.R.P.[am]}$$$$V2.0) | 10 (10) mg/ml | 10 (10) mg/ml
N=C(N)NCCC[C@H](NC(=O)CNC(=O)[C@@H]1CCC(=O)N1)C(=O)N[C@@H](Cc1ccccc1)C(N)=O [QGRFa] (HELM PEPTIDE1{[Glp].G.R.F.[am]}$$$$V2.0) | 10 mg/mL | 5 mg/mL
APRGGRDAPRG-NH2 [PRGa5] | 10 (10) mg/ml | 10 (10) mg/ml
IPPQGFRFSQW-NH2 [QWa] | 10 mg/mL | 0 mg/mL
CC[C@H](C)[C@H](NC(=O)[C@@H]1CCCN1C(=O)[C@@H](NC(=O)[C@H](CCCNC(=N)N)NC(=O)[C@H](Cc1ccccc1)NC(=O)[C@@H]1CCCN1C(=O)[C@@H]1CCCN1C(=O)[C@@H]1CCC(=O)N1)[C@@H](C)CC)C(N)=O [pIPIa] (HELM PEPTIDE1{[Glp].P.P.F.R.I.P.I.[am]}$$$$V2.0) | 10 mg/mL | 0 mg/mL
CC(C)C[C@H](NC(=O)[C@@H]1CCC(=O)N1)C(=O)N[C@@H](Cc1ccccc1)C(=O)N[C@@H](CCCNC(=N)N)C(=O)N1CCC[C@H]1C(N)=O [FRPa4] (HELM PEPTIDE1{[Glp].L.F.R.P.[am]}$$$$V2.0) | 10 (10) mg/ml | 10 (10) mg/ml
MPEQDANPQTRFD-NH2 [RFa2] | 10 mg/mL | 5 mg/mL
